Key:
Axl = target: T1, Axl (Homo sapiens, UniProt P30530); conditions: at 1 nM; cited from earlier work
T1 sequence (P30530 26-894): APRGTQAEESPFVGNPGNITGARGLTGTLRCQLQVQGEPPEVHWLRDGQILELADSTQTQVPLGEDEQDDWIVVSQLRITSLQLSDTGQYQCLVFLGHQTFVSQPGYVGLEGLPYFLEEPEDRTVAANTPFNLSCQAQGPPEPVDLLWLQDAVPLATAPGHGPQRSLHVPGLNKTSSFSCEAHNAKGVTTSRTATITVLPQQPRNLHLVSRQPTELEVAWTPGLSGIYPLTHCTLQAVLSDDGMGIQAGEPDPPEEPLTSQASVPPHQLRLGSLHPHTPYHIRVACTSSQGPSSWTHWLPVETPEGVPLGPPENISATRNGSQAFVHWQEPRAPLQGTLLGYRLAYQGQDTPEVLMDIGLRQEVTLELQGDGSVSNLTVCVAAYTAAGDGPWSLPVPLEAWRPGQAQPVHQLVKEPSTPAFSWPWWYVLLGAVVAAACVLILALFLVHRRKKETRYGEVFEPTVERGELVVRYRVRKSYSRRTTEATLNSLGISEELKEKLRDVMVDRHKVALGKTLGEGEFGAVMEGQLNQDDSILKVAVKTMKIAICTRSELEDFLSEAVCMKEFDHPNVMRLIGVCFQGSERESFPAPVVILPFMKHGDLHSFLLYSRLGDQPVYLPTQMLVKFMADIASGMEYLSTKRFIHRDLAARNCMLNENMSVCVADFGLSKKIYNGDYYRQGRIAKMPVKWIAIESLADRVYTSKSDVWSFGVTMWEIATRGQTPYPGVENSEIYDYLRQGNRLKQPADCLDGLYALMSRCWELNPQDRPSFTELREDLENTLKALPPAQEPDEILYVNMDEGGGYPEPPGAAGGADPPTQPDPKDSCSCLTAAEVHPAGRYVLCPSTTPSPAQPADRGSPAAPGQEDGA

LTK = LTK (Homo sapiens, UniProt P29376); conditions: at 1 nM; cited from earlier work
ALK = ALK (Homo sapiens, UniProt Q9UM73); conditions: at 1 nM; cited from earlier work
Flt3 = target: T2, Flt3 (Homo sapiens, UniProt P36888); conditions: at 1 nM; cited from earlier work
T2 sequence (P36888 27-993): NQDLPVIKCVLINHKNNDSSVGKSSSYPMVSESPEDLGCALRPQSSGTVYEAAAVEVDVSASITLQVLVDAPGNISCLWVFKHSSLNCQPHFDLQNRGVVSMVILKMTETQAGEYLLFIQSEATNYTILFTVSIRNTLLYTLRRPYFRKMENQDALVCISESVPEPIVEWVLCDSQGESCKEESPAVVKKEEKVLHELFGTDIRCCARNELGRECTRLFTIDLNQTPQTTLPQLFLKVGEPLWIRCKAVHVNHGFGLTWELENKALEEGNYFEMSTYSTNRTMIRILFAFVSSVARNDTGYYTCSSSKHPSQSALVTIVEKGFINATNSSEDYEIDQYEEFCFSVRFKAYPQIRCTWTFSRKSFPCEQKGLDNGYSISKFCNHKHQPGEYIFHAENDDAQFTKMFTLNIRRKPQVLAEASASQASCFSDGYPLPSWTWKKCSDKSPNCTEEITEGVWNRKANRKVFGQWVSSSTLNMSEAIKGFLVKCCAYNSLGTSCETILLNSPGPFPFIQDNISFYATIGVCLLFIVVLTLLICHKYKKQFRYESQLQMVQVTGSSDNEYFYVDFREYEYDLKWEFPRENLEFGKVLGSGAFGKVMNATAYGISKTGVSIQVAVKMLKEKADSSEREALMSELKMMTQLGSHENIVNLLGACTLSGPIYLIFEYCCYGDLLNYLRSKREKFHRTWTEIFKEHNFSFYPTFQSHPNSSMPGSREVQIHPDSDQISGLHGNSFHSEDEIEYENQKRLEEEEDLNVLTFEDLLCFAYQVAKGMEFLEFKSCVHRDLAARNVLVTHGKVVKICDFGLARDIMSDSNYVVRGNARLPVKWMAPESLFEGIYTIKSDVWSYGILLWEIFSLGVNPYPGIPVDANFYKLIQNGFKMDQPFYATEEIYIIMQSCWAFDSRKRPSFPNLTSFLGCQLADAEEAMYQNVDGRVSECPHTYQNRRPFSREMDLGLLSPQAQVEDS

[1] = system: MEL1 INS GFP/W hESC spheres; assay: hESC suspension differentiation, NEUROG3 immunofluorescence; format: cell-based, human; conditions: days 6-9.5
Protocol: Undifferentiated MEL1 INS^GFP/W reporter cells (Micallef et al, 2012) were maintained on mouse embryo fibroblast feeder layers (Millipore) in hESC media as described (Guo et al, 2013b). Suspension-based differentiations were carried out as follows. Briefly, confluent cultures were dissociated into single cell suspension by incubation with TrypLE (Gibco). Cells were counted and each well of 6-well low-adherence plates were seeded with 5.5×10^6 cells in 5.5 ml hES media supplemented with 10 ng/ml Activin A (R&D systems) and 10 ng/ml HeregulinB1 (Peprotech). Plates were placed on an orbital shaker at 100 rpm to induce sphere formation, as described (Schulz et al, 2012). To induce definitive endoderm differentiation, aggregates were collected 24 hours later in a 50 ml falcon tube, allowed to settle by gravity, washed once with PBS and re-suspended in d1 media (RPMI (Gibco) containing 0.2% FBS, 1:5000 ITS (Gibco), 100 ng/ml Activin A, and 50 ng/ml WNT3a (R&D systems)). Clusters from 3 wells were combined into 2 wells at this point and distributed into fresh low-attachment plates in 5.5 ml d1 media. Media thereafter was changed daily, by removing either 4.5 ml media (at the end of d1) or 5.5 ml media the following days and adding back 5.5 ml fresh media until day 9. After day 9, only 5 ml of media was removed and added daily. […]

[2] = system: MEL1 INS GFP/W hESC spheres; assay: hESC suspension differentiation, flow cytometry of PDX1 and NKX6.1; format: cell-based, human; conditions: alone, conditions 2 and 3; day 9.5
From the text: Treatments consisted of combinations of Cyclopamine (C), Noggin (N), and retinoic acid (R) during days 6-8, followed by subdivision of each condition into three treatment groups during day 9-9.5. Group 1) continuation of day 6-8 treatment; Group 2) treatment with EGF and KGF (EK); Group 3) treatment with EGF, KGF, and Noggin (EKN). […] Data shown are representatives of results obtained in two independent experiments. […] FIG. 17B: Quantification of PDX1 (orange gate) and NKX6.1 (blue gate) protein expressing cells in individual conditions after 9.5 days of differentiation.
Suspension-based differentiations were carried out as follows. Briefly, confluent cultures were dissociated into single cell suspension by incubation with TrypLE (Gibco). […] To induce definitive endoderm differentiation, aggregates were collected 24 hours later in a 50 ml falcon tube, allowed to settle by gravity, washed once with PBS and re-suspended in d1 media (RPMI (Gibco) containing 0.2% FBS, 1:5000 ITS (Gibco), 100 ng/ml Activin A, and 50 ng/ml WNT3a (R&D systems)). Clusters from 3 wells were combined into 2 wells at this point and distributed into fresh low-attachment plates in 5.5 ml d1 media. Media thereafter was changed daily, by removing either 4.5 ml media (at the end of d1) or 5.5 ml media the following days and adding back 5.5 ml fresh media until day 9. After day 9, only 5 ml of media was removed and added daily.
Briefly, spheres were collected and allowed to settle by gravity. Clusters were washed once in PBS and dissociated by gentle pipetting after 12-15 minutes incubation in Accumax (Innovative Cell Technologies). For sorting, cell suspensions were filtered and re-suspended in FACS buffer consisting of phosphate-buffered saline (PBS) (UCSF cell culture facility) containing 2 mM EDTA (Ambion) and 1% BSA (Sigma). Dead cells were excluded by DAPI (Sigma) staining Cell sorting was performed on a FACS Aria II (BD Bioscience). […]

LTK, sequence (P29376 17-864, species assumed): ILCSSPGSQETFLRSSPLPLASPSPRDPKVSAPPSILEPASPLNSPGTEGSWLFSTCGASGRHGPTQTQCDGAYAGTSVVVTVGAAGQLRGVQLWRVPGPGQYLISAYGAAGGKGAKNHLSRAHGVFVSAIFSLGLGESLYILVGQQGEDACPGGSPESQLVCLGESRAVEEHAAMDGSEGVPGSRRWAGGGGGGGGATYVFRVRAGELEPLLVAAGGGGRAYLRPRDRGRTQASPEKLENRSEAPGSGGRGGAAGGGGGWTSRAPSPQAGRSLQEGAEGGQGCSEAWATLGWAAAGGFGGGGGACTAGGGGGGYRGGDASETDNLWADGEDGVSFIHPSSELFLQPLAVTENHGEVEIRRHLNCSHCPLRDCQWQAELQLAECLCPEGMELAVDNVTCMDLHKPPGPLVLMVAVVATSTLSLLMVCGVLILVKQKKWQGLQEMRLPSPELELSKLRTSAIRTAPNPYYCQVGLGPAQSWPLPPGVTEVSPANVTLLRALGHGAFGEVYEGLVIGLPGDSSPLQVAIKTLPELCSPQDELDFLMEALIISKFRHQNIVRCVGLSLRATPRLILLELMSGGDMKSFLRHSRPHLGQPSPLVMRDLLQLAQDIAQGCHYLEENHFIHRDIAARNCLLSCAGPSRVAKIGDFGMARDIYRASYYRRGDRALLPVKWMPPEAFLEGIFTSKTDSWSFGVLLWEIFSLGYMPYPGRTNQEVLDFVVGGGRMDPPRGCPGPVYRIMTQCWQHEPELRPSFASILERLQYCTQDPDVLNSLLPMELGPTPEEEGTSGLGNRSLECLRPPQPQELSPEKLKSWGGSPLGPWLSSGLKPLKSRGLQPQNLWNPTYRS
ALK, sequence (Q9UM73 19-1620, species assumed): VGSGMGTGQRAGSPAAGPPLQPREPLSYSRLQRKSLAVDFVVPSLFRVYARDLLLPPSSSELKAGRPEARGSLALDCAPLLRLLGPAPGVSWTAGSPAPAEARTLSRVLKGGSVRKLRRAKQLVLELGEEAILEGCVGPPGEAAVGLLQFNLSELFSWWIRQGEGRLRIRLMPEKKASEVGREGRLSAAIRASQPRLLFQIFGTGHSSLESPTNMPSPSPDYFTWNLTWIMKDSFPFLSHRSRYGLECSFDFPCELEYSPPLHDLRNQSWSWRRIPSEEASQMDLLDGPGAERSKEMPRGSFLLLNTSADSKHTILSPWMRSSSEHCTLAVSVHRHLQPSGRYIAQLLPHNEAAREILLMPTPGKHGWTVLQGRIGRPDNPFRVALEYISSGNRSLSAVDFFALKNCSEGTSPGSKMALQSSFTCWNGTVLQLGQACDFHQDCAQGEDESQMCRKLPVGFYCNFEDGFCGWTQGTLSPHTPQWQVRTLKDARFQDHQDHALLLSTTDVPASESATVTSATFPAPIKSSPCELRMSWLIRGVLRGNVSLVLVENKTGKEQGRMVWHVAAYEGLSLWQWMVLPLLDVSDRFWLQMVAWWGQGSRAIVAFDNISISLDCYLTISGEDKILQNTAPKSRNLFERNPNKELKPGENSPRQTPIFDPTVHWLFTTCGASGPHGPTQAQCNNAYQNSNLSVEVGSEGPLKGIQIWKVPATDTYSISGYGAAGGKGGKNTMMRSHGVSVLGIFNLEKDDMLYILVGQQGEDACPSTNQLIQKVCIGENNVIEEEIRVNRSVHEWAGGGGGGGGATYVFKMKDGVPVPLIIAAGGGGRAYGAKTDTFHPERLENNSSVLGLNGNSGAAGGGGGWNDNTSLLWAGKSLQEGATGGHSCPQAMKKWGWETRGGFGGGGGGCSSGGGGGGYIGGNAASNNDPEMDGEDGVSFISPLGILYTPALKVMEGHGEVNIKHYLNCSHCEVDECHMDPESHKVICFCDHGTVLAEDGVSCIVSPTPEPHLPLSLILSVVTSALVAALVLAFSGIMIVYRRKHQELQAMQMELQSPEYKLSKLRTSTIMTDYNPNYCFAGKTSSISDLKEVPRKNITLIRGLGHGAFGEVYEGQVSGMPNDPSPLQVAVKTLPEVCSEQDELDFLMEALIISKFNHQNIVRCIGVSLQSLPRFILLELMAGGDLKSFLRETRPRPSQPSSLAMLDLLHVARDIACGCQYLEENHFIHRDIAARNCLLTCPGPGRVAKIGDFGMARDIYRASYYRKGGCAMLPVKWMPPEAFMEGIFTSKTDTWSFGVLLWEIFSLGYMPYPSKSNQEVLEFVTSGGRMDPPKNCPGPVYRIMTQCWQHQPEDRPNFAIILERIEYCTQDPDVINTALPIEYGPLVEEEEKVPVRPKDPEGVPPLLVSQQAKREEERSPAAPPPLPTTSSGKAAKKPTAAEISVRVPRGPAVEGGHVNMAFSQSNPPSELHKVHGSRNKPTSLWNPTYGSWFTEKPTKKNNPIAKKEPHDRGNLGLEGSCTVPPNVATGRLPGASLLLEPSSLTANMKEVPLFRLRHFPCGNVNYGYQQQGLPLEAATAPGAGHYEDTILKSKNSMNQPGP

CCc1nc(C(N)=O)c(Nc2ccc(N3CCC(N4CCN(C)CC4)CC3)c(OC)c2)nc1NC1CCOCC1 [ASP2215]
inhibition of AXL (Axl): over 50% | inhibition of LTK (LTK): over 50% | inhibition of ALK (ALK): over 50% | inhibition of FLT3 (Flt3): over 50%

B1: Noggin: the BMP inhibitor Noggin (protein, UniProt Q13253 28-232, looked up)
Noggin: QHYLHIRPAPSDNLPLVDLIEHPDPIFDPKEKDLNETLLRSLLGGHYDPGFMATSPPEDRPGGGGGAAGGAEDLAELDQLLRQRPSGAMPSEIKGLEFSEGLAQGKKQRLSKKLRRKLQMWLWSQTFCPVLYAWNDLGSRFWPRYVKVGSCFSKRSCSVPEGMVCKPSKSVHLTVLRWRCQRRGGQRCGWIPIQYPIISECKCSC
NEUROG3 expression (endocrine differentiation) [1]: noted only when spheres had been exposed to N | generation of PDX1+ cells over base media alone [2]: did not result in enhanced generation

From patent US11332716B2, “Methods and compositions for producing pancreatic beta cells” (The Regents of the University of California, priority 2015, dated 2022)
